One experiment has as its system SCID mice. Briefly: Radial arm water maze (RAWM). Type of experiment: in vivo, mouse. To be noted: i.p. 100 μl containing 100 μM at beginning of each of two days, vs PBS. Here is the method: Radial arm water maze (RAWM). Mice were tested for two days on 6 radial arm water maze paradigm in a water pool, as described in Alamed et al. (2006). Briefly, mice received Kp-10 injection in the beginning of each day. On the first day, 15 trials were performed, in trials 1, 3, 5, 7, 9 and 11 the platform was visible, and in all other trials the platform was hidden. On the second day, 12 trials were performed, all of them with hidden platform. The time required to reach the platform and the number of errors (incorrect arm entries) in 1-min time period were recorded (FIG. 11A).
One of the cognitive malfunctions in schizophrenia is deficit in spatial learning and memory. To evaluate whether kisspeptine can improve spatial learning and memory, we studied its effect in the radial arm water maze (RAWM), a hippocampal dependent spatial learning and memory assay. In this task, the mouse must find a platform that is located at one of the six maze arms; the time required to reach the platform and the number of errors along the way are recorded (Alamed et al., 2006) (FIG. 11A). Since wild type mice perform well in this test, the ability of Kp-10 to improve their performance is very limited. Therefore we used immune deficient mice (severe combined immunodeficiency; SCID), which have cognitive deficit manifested by poorer performance in the RAWM test. […]

For experiment [1], the system named is offspring of poly I:C treated dams. Briefly: PPI in offspring of poly I:C treated dams (mouse model for schizophrenia). It counts as in vivo. Here is the method: Poly I:C administration. Rats or mice were bred, and the first day after copulation was defined as day 1 of pregnancy. On gestation day 15, pregnant animals were injected intravenously with 4.0 mg/kg poly I:C (Sigma-Aldrich, Israel) dissolved in saline, or an equivalent volume of saline as a control. Both rats and mice received the same protocol of poly I:C administration.
Prepulse Inhibition (PPI). PPI testing was performed within startle chambers purchased from Med Associates Inc (Med Associates, St. Albans, Vt., USA). PPI was analyzed as described previously (Kipnis et al., 2004). Briefly, during a period of acclimation, a 65-dB background noise was applied for 5-min, and continued throughout the test session. All sessions for testing of PPI consisted of startle trials (pulse alone, 40-ms, 120-dB), prepulse trials (prepulse 20-ms, 69, 73, 78, or 81 dB followed by a (100-ms delay) pulse), and no-stimulus trials. All sessions were presented in pseudo-random order. The average time between trials was 15 s (range 12-30 s). PPI was calculated as: % PPI=100−{[(startle response for prepulse+pulse)/(startle response for pulse-alone)]×100}. In all the experiments, there were no significant differences between groups in trials of startle reactivity to pulse alone, and in no-stimulation trials. Data from no-stimulation trials are not included in the results because the values obtained were negligible relative to values from trials containing startle stimuli. Reduced PPI is associated with schizophrenia-related behavior. The same protocol was used in mice and rats (FIG. 1A).
Kisspeptin treatment. Mice were injected i.p with 100 μl of 1/10/100 μM Kp-10 peptide (SEQ ID NO:3) (synthesized at the Weizmann Institute of Science, or Sigma-Aldrich, Israel) dissolved in PBS, 30 minutes before the PPI analysis.
The ability of a normal lymphocyte population to reverse abnormal PPI behavior in immune deficient mice, encouraged us to test whether immune cells derived from the offspring of poly I:C treated dams would reverse the abnormal behavior of SCID mice in the PPI test. […]

For another experiment, the system named is BDNF. To be noted: hippocampal slices; cited from earlier work.

The text below walks through data of patent US8716228B2, “GPR54 agonists or antagonists for treatment of diseases presenting behavioral abnormalities” (YEDA Research and Development Co. Ltd., priority 2009, dated 2014).

YNWNSFGLRF—NH2 [Kp-10]: in the experiment on SCID mice, the “latency time to find the platform” value was “improved” and the number of errors result is “reduced”. Moreover, in experiment [1] (single i.p. injection at adolescence (8 weeks), 100 μl containing 100 μM, vs PBS), the “PPI at adulthood (12 weeks)” value was “did not exhibit abnormal PPI”. Further, the PPI result in experiment [1] (treatment at adulthood (12 weeks) after onset, 100 μl of 100 μM, 30 min before PPI) was “improved the abnormal PPI”. The “BDNF mRNA levels” value in the experiment on BDNF is on record as “elevate BDNF mRNA levels”.
